Each structure is given as a SMILES string.

32 compounds from US20090048258A1, “Amide Compound” (priority 2005, published 2009) can be followed below.

For this test, the target named is T1, Human DGAT1 (Homo sapiens, UniProt O75907).
T1 construct: my translation of the primer: M-G-DYKDDDD-GDRGSSRRR) (N); made in house; host or cells: Sf9 insect cells (recombinant baculovirus BAC-DGAT1, pFASTBAC1); microsome fraction
T1 sequence (O75907 1-488): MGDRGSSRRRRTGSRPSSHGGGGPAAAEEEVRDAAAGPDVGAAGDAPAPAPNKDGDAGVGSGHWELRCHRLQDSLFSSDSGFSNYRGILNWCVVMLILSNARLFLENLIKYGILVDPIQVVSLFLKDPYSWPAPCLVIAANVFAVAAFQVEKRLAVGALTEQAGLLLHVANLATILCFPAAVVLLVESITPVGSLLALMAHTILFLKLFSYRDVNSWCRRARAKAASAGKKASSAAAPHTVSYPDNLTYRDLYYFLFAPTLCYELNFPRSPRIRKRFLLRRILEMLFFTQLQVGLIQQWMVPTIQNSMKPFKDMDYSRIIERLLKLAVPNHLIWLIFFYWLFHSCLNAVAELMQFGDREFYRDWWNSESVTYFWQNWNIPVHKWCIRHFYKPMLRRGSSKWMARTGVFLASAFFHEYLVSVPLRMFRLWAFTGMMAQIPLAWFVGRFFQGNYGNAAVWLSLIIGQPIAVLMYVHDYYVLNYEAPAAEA
In words: DGAT inhibitory activity: [14C]-triglyceride synthesis by DGAT1 high expression Sf9 microsome. The conditions noted are these: Table 2, 25 μM dioleoylglycerol, 25 μM [14C]-Oleoyl-CoA, 32° C., 15 min, read-out: DGAT inhibitory activity (according to IC50). It counts as biochemical. The procedure, abridged: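 DGAT1 was overexpressed from recombinant baculovirus in Sf9 cells, and microsomes from these cells were the enzyme source. Reactions ran in 100 mM Tris-HCl pH 7.5, 250 mM sucrose, 150 mM MgCl2 and 0.01% BSA. [14C]-triglyceride was extracted into chloroform, separated by TLC and quantified by imaging plate, with inhibition calculated against control and blank (no microsome) counts.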
As to `CCOc1ccc(C(=O)CCC(=O)Nc2cc(-c3ccccc3)c3ccc(/C=C/C#N)cc3n2)cc1OCC` [Example 86, N-{7-[(E)-2-cyanovinyl]-4-phenylquinolin-2-yl}-4-(3,4-diethoxyphenyl)-4-oxobutanamide], the IC50 was 10 to 50 nM. For `CCOc1ccc(C(=O)CCC(=O)Nc2cc(-c3ccccc3)c3ccc(CCC(=O)OC(C)(C)C)cc3n2)cc1OCC` [Example 87, tert-butyl 3-(2-{[4-(3,4-diethoxyphenyl)-4-oxobutanoyl]amino}-4-phenylquinoline-7-yl)propanoate] the value was 10 to 50 nM; for `CCOc1ccc(C(=O)CCC(=O)Nc2nc3ccccc3c(-c3ccccc3)c2C)cc1OCC` [Example 88, 4-(3,4-diethoxyphenyl)-N-(3-methyl-4-phenylquinolin-2-yl)-4-oxobutanamide], 50 to 500 nM; for `CCOc1ccc(C(=O)CCC(=O)Nc2cc(-c3ccccn3)c3ccccc3n2)cc1OCC` [Example 89, 4-(3,4-diethoxyphenyl)-4-oxo-N-[4-(pyridin-2-yl)quinolin-2-yl]butanamide], 50 to 500 nM.

Consider `CCOc1ccc(C(=O)CCC(=O)Nc2cc(-c3ccc(OCCN4CCOCC4)cc3)c3ccccc3n2)cc1OCC` [Example 90, 4-(3,4-diethoxyphenyl)-N-{4-[4-(2-(morpholin-4-yl)ethoxy)phenyl]quinolin-2-yl}-4-oxobutanamide], for which the IC50 fell in the range of 50 to 500 nM. Regarding `CCOc1ccc(C(=O)CCC(=O)Nc2cc(-c3ccncc3)c3ccccc3n2)cc1OCC` [Example 91, 4-(3,4-diethoxyphenyl)-4-oxo-N-[4-(pyridin-4-yl)quinolin-2-yl]butanamide], the IC50 was 50 to 500 nM. The same measure for `CCOc1ccc(C(=O)CCC(=O)Nc2cc(-c3ccc(OCCNC(=O)OC(C)(C)C)cc3)c3ccccc3n2)cc1OCC` [Example 92, tert-butyl {2-[4-(2-{[4-(3,4-diethoxyphenyl)-4-oxobutanoyl]amino}quinolin-4-yl)phenoxy]ethyl}carbamate]: 50 to 500 nM. For `CCOc1ccc(C(=O)CCC(=O)Nc2cc(-c3ccc(OCCCN(C)C)cc3)c3ccccc3n2)cc1OCC` [Example 93, 4-(3,4-diethoxyphenyl)-N-(4-{4-[3-(dimethylamino)propoxy]phenyl}quinolin-2-yl)-4-oxobutanamide], the IC50 lay in the range of 50 to 500 nM.

Turning to `CCOc1ccc(C(=O)CCC(=O)Nc2cc(-c3ccc(OCCN)cc3)c3ccccc3n2)cc1OCC` [Example 94, N-{4-[4-(2-aminoethoxy)phenyl]quinolin-2-yl}-4-(3,4-diethoxyphenyl)-4-oxobutanamide], the IC50 was 50 to 500 nM. `CCOc1ccc(C(=O)CCC(=O)Nc2cc(-c3ccccc3)cc(Cc3ccccc3)n2)cc1OCC` [Example 95, N-(6-benzyl-4-phenylpyridin-2-yl)-4-(3,4-diethoxyphenyl)-4-oxobutanamide]: the IC50 fell in the range of 50 to 500 nM.

With `CCOC(=O)c1c(NC(=O)CCC(=O)c2ccc(OCC)c(OCC)c2)sc(Cc2ccccc2)c1-c1ccccc1` [Example 96, ethyl 5-benzyl-2-{[4-(3,4-diethoxyphenyl)-4-oxobutanoyl]amino}-4-phenylthiophene-3-carboxylate], the IC50 lay in the range of 50 to 500 nM. `CCCc1cc(C(=O)CCC(=O)Nc2cc(-c3ccccc3)c(Cc3ccccc3)s2)ccc1OCC` [Example 97, N-(5-benzyl-4-phenyl-2-thienyl)-4-(4-ethoxy-3-propylphenyl)-4-oxobutanamide]: the IC50 lay in the range of 50 to 500 nM.

With `CCOc1ccc(C(=O)CCC(=O)Nc2cc(-c3ccccc3)c(Cc3ccccc3)s2)cc1Br` [Example 98, N-(5-benzyl-4-phenyl-2-thienyl)-4-(3-bromo-4-ethoxyphenyl)-4-oxobutanamide], the IC50 is 50 to 500 nM. Turning to `O=C(CCC(=O)c1ccc2c(c1)CCCC2)Nc1cc(-c2ccccc2)c(Cc2ccccc2)s1` [Example 99, N-(5-benzyl-4-phenyl-2-thienyl)-4-oxo-4-(5,6,7,8-tetrahydronaphthalen-2-yl)butanamide], the IC50 lay in the range of 50 to 500 nM. For the compound `CCOc1ccc(C(=O)CCC(=O)Nc2cc(C(C)(C)C)nn2-c2ccc(C(C)(C)C)cc2)cc1OCC` [Example 100, N-[3-tert-butyl-1-(4-tert-butylphenyl)-1H-pyrazol-5-yl]-4-(3,4-diethoxyphenyl)-4-oxobutanamide], the IC50 is 500 to 10000 nM. The same measure for `CCOc1ccc(C(=O)CCC(=O)Nc2cc(-c3ccccc3Cl)nn2-c2ccc(C)cc2)cc1OCC` [Example 101, N-[3-(2-chlorophenyl)-1-(4-methylphenyl)-1H-pyrazol-5-yl]-4-(3,4-diethoxyphenyl)-4-oxobutanamide]: 500 to 10000 nM; for `CCOc1ccc(C(=O)CCC(=O)Nc2cc(-c3ccccc3)cc(-c3ccccc3)n2)cc1` [Example 102, N-(4,6-diphenylpyridin-2-yl)-4-(4-ethoxyphenyl)-4-oxobutanamide]: 50 to 500 nM. `CCOc1cccc(C(=O)CCC(=O)Nc2cc(-c3ccccc3)cc(-c3ccccc3)n2)c1` [Example 103, N-(4,6-diphenylpyridin-2-yl)-4-(3-ethoxyphenyl)-4-oxobutanamide]: the IC50 lay in the range of 500 to 10000 nM. In the case of `O=C(CCC(=O)c1ccc2c(c1)CCO2)Nc1cc(-c2ccccc2)cc(-c2ccccc2)n1` [Example 104, 4-(2,3-dihydro-1-benzofuran-5-yl)-N-(4,6-diphenylpyridin-2-yl)-4-oxobutanamide], the IC50 lay in the range of 50 to 500 nM.

As for `O=C(CCC(=O)c1ccc2c(c1)CCCC2)Nc1cc(-c2ccccc2)cc(-c2ccccc2)n1` [Example 105, N-(4,6-diphenylpyridin-2-yl)-4-oxo-4-(5,6,7,8-tetrahydronaphthalen-2-yl)butanamide], the IC50 is 50 to 500 nM.

Consider `CCOc1ccc(C(=O)CCC(=O)Nc2cc(-c3cccc(OC)c3)cc(-c3ccccc3)n2)cc1OCC` [Example 106, 4-(3,4-diethoxyphenyl)-N-[4-(3-methoxyphenyl)-6-phenylpyridin-2-yl]-4-oxobutanamide], for which the IC50 was in the range of 50 to 500 nM. As for `CCCCOCCOc1cc(NC(=O)CCC(=O)c2ccc(OCC)c(OCC)c2)nc(-c2ccccc2)c1` [Example 107, N-[4-(2-butoxyethoxy)-6-phenylpyridin-2-yl]-4-(3,4-diethoxyphenyl)-4-oxobutanamide], the IC50 lay within 50 to 500 nM. Take `CCOc1ccc(C(=O)CCC(=O)Nc2cn(-c3ccccc3)nc2-c2ccc(F)cc2)cc1OCC` [Example 108, 4-(3,4-diethoxyphenyl)-N-[3-(4-fluorophenyl)-1-phenyl-1H-pyrazol-4-yl]-4-oxobutanamide]: the IC50 lay within 50 to 500 nM. For `CCOc1ccc(C(=O)CCC(=O)Nc2cn(Cc3ccccc3)nc2-c2ccccc2)cc1` [Example 109, N-(1-benzyl-3-phenyl-1H-pyrazol-4-yl)-4-(4-ethoxyphenyl)-4-oxobutanamide] the value was 500 to 10000 nM; for `CCOc1ccc(C(=O)CCC(=O)Nc2cc(-c3ccc(C4CCCCC4)cc3)cc(-c3ccccc3)n2)cc1OCC` [Example 110, N-[4-(4-cyclohexylphenyl)-6-phenylpyridin-2-yl]-4-(3,4-diethoxyphenyl)-4-oxobutanamide], 500 to 10000 nM. `Cc1ccc(C(=O)CCC(=O)Nc2cc(-c3ccccc3)cc(-c3ccccc3)n2)cc1C` [Example 111, 4-(3,4-dimethylphenyl)-N-(4,6-diphenylpyridin-2-yl)-4-oxobutanamide]: the IC50 lay in the range of 500 to 10000 nM.

Regarding `CCOc1ccc(C(=O)CCC(=O)Nc2cc(-c3ccc(C(=O)OC)cc3)cc(-c3ccccc3)n2)cc1OCC` [Example 112, methyl 4-(2-{[4-(3,4-diethoxyphenyl)-4-oxobutanoyl]amino}-6-phenylpyridin-4-yl)benzoate], the IC50 lay in the range of 500 to 10000 nM.

Regarding `CCOc1ccc(C(=O)CCC(=O)Nc2cc(-c3ccc(C(=O)O)cc3)cc(-c3ccccc3)n2)cc1OCC` [Example 113, 4-(2-{[4-(3,4-diethoxyphenyl)-4-oxobutanoyl]amino}-6-phenylpyridin-4-yl)benzoic acid], the IC50 fell in the range of 500 to 10000 nM. For the compound `O=C(CCC(=O)c1ccc2c(c1)CCO2)Nc1cc(-c2cccnc2)cc(-c2ccccc2)n1` [Example 114, 4-(2,3-dihydro-1-benzofuran-5-yl)-4-oxo-N-(6′-phenyl-3,4′-bipyridine-2′-yl)butanamide], the IC50 was in the range of 50 to 500 nM. Take `O=C(CCC(=O)c1ccc2c(c1)CCO2)Nc1cc(-c2ccoc2)cc(-c2ccccc2)n1` [Example 115, 4-(2,3-dihydro-1-benzofuran-5-yl)-N-[4-(3-furyl)-6-phenylpyridin-2-yl]-4-oxobutanamide]: the IC50 is 50 to 500 nM. In the case of `O=C(CCC(=O)c1ccc2c(c1)CCO2)Nc1cc(-c2ccncc2)cc(-c2ccccc2)n1` [Example 116, 4-(2,3-dihydro-1-benzofuran-5-yl)-4-oxo-N-(6-phenyl-4,4′-bipyridin-2-yl)butanamide], the IC50 is 500 to 10000 nM. For the compound `CCOc1ccc(C(=O)CCC(=O)Nc2cc(-c3ccoc3)cc(-c3ccccc3)n2)cc1OCC` [Example 117, 4-(3,4-diethoxyphenyl)-N-[4-(3-furyl)-6-phenylpyridin-2-yl]-4-oxobutanamide], the IC50 was 50 to 500 nM.
